Tests used:
Conditions in all cases: 72 h
Caco-2 [1] = assay: cell viability relative to DMSO; higher = less toxic
Calu-3 [2] = assay: as above
HepG2 [3] = assay: as above
U2OS [4] = assay: as above
Vero E6 [5] = assay: as above
Caco-2 [6] = assay: relative viability EC50 (midpoint between 100% and the lowest measured viability); higher = less toxic
Calu-3 [7] = assay: as above
HepG2 [8] = assay: as above
U2OS [9] = assay: as above
Vero E6 [10] = assay: as above
Caco-2 [11] = assay: drug sensitivity score (DSS) for viability; higher = more toxic; extreme values may be limits of the assay
Calu-3 [12] = assay: as above
HepG2 [13] = assay: as above
U2OS [14] = assay: as above
Vero E6 [15] = assay: as above

SMILES	cell viability (Caco-2 [1]; 1 nM)	cell viability (Caco-2 [1]; 10 nM)	cell viability (Caco-2 [1]; 100 nM)	cell viability (Caco-2 [1]; 1000 nM)	cell viability (Caco-2 [1]; 10000 nM)	cell viability (Calu-3 [2]; 1 nM)	cell viability (Calu-3 [2]; 10 nM)	cell viability (Calu-3 [2]; 100 nM)	cell viability (Calu-3 [2]; 1000 nM)	cell viability (Calu-3 [2]; 10000 nM)	cell viability (HepG2 [3]; 1 nM)	cell viability (HepG2 [3]; 10 nM)	cell viability (HepG2 [3]; 100 nM)	cell viability (HepG2 [3]; 1000 nM)	cell viability (HepG2 [3]; 10000 nM)	cell viability (U2OS [4]; 1 nM)	cell viability (U2OS [4]; 10 nM)	cell viability (U2OS [4]; 100 nM)	cell viability (U2OS [4]; 1000 nM)	cell viability (U2OS [4]; 10000 nM)	cell viability (Vero E6 [5]; 1 nM)	cell viability (Vero E6 [5]; 10 nM)	cell viability (Vero E6 [5]; 100 nM)	cell viability (Vero E6 [5]; 1000 nM)	cell viability (Vero E6 [5]; 10000 nM)	relative viability EC50 (Caco-2 [6])	relative viability EC50 (Calu-3 [7])	relative viability EC50 (HepG2 [8])	relative viability EC50 (U2OS [9])	relative viability EC50 (Vero E6 [10])	drug sensitivity score (Caco-2 [11])	drug sensitivity score (Calu-3 [12])	drug sensitivity score (HepG2 [13])	drug sensitivity score (U2OS [14])	drug sensitivity score (Vero E6 [15])
C=C1/C(=C\C=C2/CCC[C@]3(C)[C@@H]([C@H](C)/C=C/C=C/C(O)(CC)CC)CC[C@@H]23)C[C@@H](O)C[C@@H]1O [seocalcitol]	98.5%	87.2%	97.4%	98.5%	97.4%	107%	102%	99.2%	95.7%	94.9%	104%	97.3%	99.3%	112%	99.4%	99.9%	95.5%	105%	96.5%	89.6%	96%	93.5%	88.7%	96.6%	96.7%	> 10 µM	> 10 µM	> 10 µM	> 10 µM	> 10 µM	0	0	0	0	0
CCCC(=O)O [sodium-butyrate]	104%	95.8%	100%	99.9%	98.9%	103%	95.8%	96.2%	97.7%	102%	109%	91.8%	102%	91.2%	99.1%	104%	102%	98.6%	106%	96.5%	109%	101%	102%	99.4%	100%	> 10 µM	> 10 µM	> 10 µM	> 10 µM	> 10 µM	0	0	0	0	0
COc1ccc(NS(=O)(=O)c2ccc(N)cc2)nn1 [sulfamethoxypyridazine]	97.9%	99.8%	94.8%	101%	98.2%	93.3%	93.5%	100%	97.4%	95.6%	99.7%	114%	110%	97.2%	98.8%	99.9%	94.3%	97.4%	101%	99.7%	103%	100%	97.1%	98.6%	104%	> 10 µM	> 10 µM	> 10 µM	> 10 µM	> 10 µM	0	0	0	0	0
Nc1ccc(S(N)(=O)=O)cc1 [sulfanilamide]	85.8%	59.8%	84.2%	81.1%	113%	95%	97.2%	106%	90.7%	102%	96.8%	104%	95.1%	109%	103%	98.8%	97%	106%	100%	103%	99.8%	94.2%	83.1%	105%	117%	> 10 µM	> 10 µM	> 10 µM	> 10 µM	> 10 µM	0	0	0	0	0
COc1ccc(-c2cc(=O)c3c(OC)c(OC)c(OC)c(OC)c3o2)cc1 [tangeritin]	95.1%	89.6%	99%	103%	91.7%	106%	99.6%	103%	100%	92.3%	94.2%	101%	95.2%	107%	105%	98.5%	94.3%	98.9%	97.4%	89.8%	91.8%	98.7%	92.4%	98%	97%	> 10 µM	> 10 µM	> 10 µM	> 10 µM	> 10 µM	0	0	0	0	0
CCN(CC)C(=O)N[C@H]1C[C@@H]2c3cccc4[nH]cc(c34)C[C@H]2N(C)C1 [terguride]	88.6%	93.3%	108%	97.2%	99.5%	106%	97.4%	95.2%	105%	115%	104%	105%	95.9%	92.9%	102%	96.4%	95.3%	94.5%	99.1%	94.7%	105%	106%	104%	99.8%	97%	> 10 µM	> 10 µM	> 10 µM	> 10 µM	> 10 µM	0	0	0	0	0
Cc1ccsc1C(=CCCN1CCC[C@@H](C(=O)O)C1)c1sccc1C [tiagabine]	93.5%	97.9%	102%	92.3%	106%	117%	103%	99.8%	98.1%	100%	96%	103%	97.3%	103%	98.6%	101%	94.2%	101%	98%	94.2%	98.2%	100%	92.4%	104%	106%	> 10 µM	> 10 µM	> 10 µM	> 10 µM	> 10 µM	0	0	0	0	0
CCS(=O)(=O)CCn1c([N+](=O)[O-])cnc1C [tinidazole]	104%	77.8%	99%	108%	93.1%	95.2%	96.6%	98.4%	98.2%	99.9%	94.1%	109%	85.5%	118%	86.8%	96.3%	94.8%	97.1%	92%	98.3%	100%	102%	91.7%	97.6%	106%	> 10 µM	> 10 µM	> 10 µM	> 10 µM	> 10 µM	0	0	0	0	0
COc1ccc(N2CCOCC2)c2sc(NC(=O)N3CCC(C)(O)CC3)nc12 [tozadenant]	90.8%	95.5%	110%	96.1%	98%	87.7%	94.1%	87.3%	101%	97.4%	85.8%	99.4%	109%	99.7%	98.2%	103%	95.7%	102%	98.9%	103%	94.5%	106%	90.6%	94.3%	101%	> 10 µM	> 10 µM	> 10 µM	> 10 µM	> 10 µM	0	0	0	0	0
O=C(O)/C=C/CO [trans-4-hydroxycrotonic-acid]	96.2%	93.5%	97.6%	103%	99.8%	109%	95.3%	102%	97.1%	100%	94.7%	92%	98%	113%	102%	98.3%	99.7%	102%	98.2%	98.9%	97%	102%	94.8%	101%	106%	> 10 µM	> 10 µM	> 10 µM	> 10 µM	> 10 µM	0	0	0	0	0
CCCCCC(C)N (stereo not given) [tuaminoheptane]	90.7%	89.6%	95.9%	96.8%	87.6%	90.3%	98.6%	109%	107%	104%	103%	94.9%	83%	88.8%	90.8%	100%	101%	97.5%	99.9%	96.4%	96.4%	103%	97.9%	95%	94.4%	> 10 µM	> 10 µM	> 10 µM	> 10 µM	> 10 µM	0	0	4.1	0	0
COc1ccccc1N1CCN(CCCNc2cc(=O)n(C)c(=O)n2C)CC1 [urapidil]	92.1%	96.4%	97.9%	101%	104%	96.7%	98.5%	96.4%	102%	107%	105%	90.1%	107%	95.8%	95%	91.1%	97.5%	95.2%	101%	103%	100%	100%	98.8%	98.6%	102%	> 10 µM	> 10 µM	> 10 µM	> 10 µM	> 10 µM	0	0	0	0	0
NC(N)=O [urea]	96.4%	93.4%	102%	94.5%	108%	100%	92.1%	93.8%	114%	89.3%	82.1%	86.1%	90.2%	86.5%	94.2%	95.8%	97.9%	98.6%	101%	97.2%	97.8%	100%	104%	92.3%	103%	> 10 µM	> 10 µM	> 10 µM	> 10 µM	> 10 µM	0	0	0	0	0
Cc1onc(-c2ccccc2)c1-c1ccc(S(N)(=O)=O)cc1 [valdecoxib]	103%	97.5%	98%	93.4%	93.6%	95.6%	104%	105%	96.9%	106%	89.6%	95.3%	97.5%	96%	96.1%	96.5%	94.9%	97.8%	99.5%	98.5%	102%	99.1%	106%	93.8%	99.5%	> 10 µM	> 10 µM	> 10 µM	> 10 µM	> 10 µM	0	0	0	0	0
